Numbers after ± are expanded uncertainties.
Legend:
[1] = 101.33 kPa, Liquid, Not reported.
[2] = excess molar enthalpy (molar enthalpy of mixing); xn = mol fraction of the nth substance listed; conditions: 101 kPa, Liquid, Calvet calorimetry

CCCCCC(C)C [2-methylheptane]
[1]
Conditions | molar volume [m3/mol]
288.05 K | 0.0001626 ± 3.3e-07
298.15 K | 0.0001636 ± 3.3e-07

CCCCCC [hexane] + FC(F)(F)C(F)(F)C(F)(F)C(F)(F)C(F)(F)F
Conditions | excess molar enthalpy [kJ/mol]
[2], 293.15 K, x2 = 0 | 0 ± 0.04

C1CCCCC1 [cyclohexane] + FC(F)(F)C(F)(F)C(F)(F)C(F)(F)C(F)(F)C(F)(F)F
Conditions | excess molar enthalpy [kJ/mol]
[2], 298.15 K, x2 = 0 | 0 ± 0.04

FC(F)(F)C(F)(F)C(F)(F)C(F)(F)C(F)(F)C(F)(F)F [perfluorohexane] + CCCCCC
[2], 298.15 K
Conditions | excess molar enthalpy [kJ/mol]
x1 = 0.05 | 0.555 ± 0.04
x1 = 0.1 | 0.982 ± 0.041
x1 = 0.15 | 1.31 ± 0.041
x1 = 0.2 | 1.56 ± 0.042
x1 = 0.25 | 1.74 ± 0.042
x1 = 0.3 | 1.88 ± 0.042
x1 = 0.35 | 1.98 ± 0.043
x1 = 0.4 | 2.05 ± 0.043
x1 = 0.45 | 2.09 ± 0.043
x1 = 0.5 | 2.1 ± 0.043
x1 = 0.55 | 2.09 ± 0.043
x1 = 0.6 | 2.04 ± 0.043
x1 = 0.65 | 1.96 ± 0.043
x1 = 0.7 | 1.84 ± 0.042
x1 = 0.75 | 1.68 ± 0.042
x1 = 0.8 | 1.46 ± 0.042
x1 = 0.85 | 1.19 ± 0.041
x1 = 0.9 | 0.858 ± 0.041
x1 = 0.95 | 0.462 ± 0.04
x1 = 1 | 0 ± 0.04

CCCCC [pentane] + FC(F)(F)C(F)(F)C(F)(F)C(F)(F)C(F)(F)C(F)(F)F
Conditions | excess molar enthalpy [kJ/mol]
[2], 293.15 K, x2 = 0 | 0 ± 0.04

CCCCCC [hexane] + FC(F)(F)C(F)(F)C(F)(F)C(F)(F)C(F)(F)C(F)(F)C(F)(F)C(F)(F)F
Conditions | excess molar enthalpy [kJ/mol]
[2], 298.15 K, x2 = 0 | 0 ± 0.04

FC(F)(F)C(F)(F)C(F)(F)C(F)(F)C(F)(F)C(F)(F)F [perfluorohexane] + CCCCCCC
[2], 298.15 K
Conditions | excess molar enthalpy [kJ/mol]
x1 = 0.05 | 0.563 ± 0.04
x1 = 0.1 | 1 ± 0.041
x1 = 0.15 | 1.34 ± 0.041
x1 = 0.2 | 1.6 ± 0.042
x1 = 0.25 | 1.79 ± 0.042
x1 = 0.3 | 1.94 ± 0.043
x1 = 0.35 | 2.04 ± 0.043
x1 = 0.4 | 2.11 ± 0.043
x1 = 0.45 | 2.15 ± 0.043
x1 = 0.5 | 2.16 ± 0.043
x1 = 0.55 | 2.15 ± 0.043
x1 = 0.6 | 2.1 ± 0.043
x1 = 0.65 | 2.03 ± 0.043
x1 = 0.7 | 1.92 ± 0.042
x1 = 0.75 | 1.76 ± 0.042
x1 = 0.8 | 1.55 ± 0.042
x1 = 0.85 | 1.28 ± 0.041
x1 = 0.9 | 0.941 ± 0.041
x1 = 0.95 | 0.517 ± 0.04
x1 = 1 | 0 ± 0.04

FC(F)(F)C(F)(F)C(F)(F)C(F)(F)C(F)(F)F [perfluoropentane] + CCCCCC
[2], 293.15 K
Conditions | excess molar enthalpy [kJ/mol]
x1 = 0.05 | 0.532 ± 0.04
x1 = 0.1 | 0.939 ± 0.041
x1 = 0.15 | 1.25 ± 0.041
x1 = 0.2 | 1.47 ± 0.042
x1 = 0.25 | 1.64 ± 0.042
x1 = 0.3 | 1.76 ± 0.042
x1 = 0.35 | 1.84 ± 0.042
x1 = 0.4 | 1.89 ± 0.042
x1 = 0.45 | 1.91 ± 0.042
x1 = 0.5 | 1.91 ± 0.042
x1 = 0.55 | 1.88 ± 0.042
x1 = 0.6 | 1.82 ± 0.042
x1 = 0.65 | 1.74 ± 0.042
x1 = 0.7 | 1.62 ± 0.042
x1 = 0.75 | 1.47 ± 0.042
x1 = 0.8 | 1.28 ± 0.041
x1 = 0.85 | 1.04 ± 0.041
x1 = 0.9 | 0.745 ± 0.04
x1 = 0.95 | 0.4 ± 0.04
x1 = 1 | 0 ± 0.04

CCCCCCCC [octane] + FC(F)(F)C(F)(F)C(F)(F)C(F)(F)C(F)(F)C(F)(F)F
Conditions | excess molar enthalpy [kJ/mol]
[2], 298.15 K, x2 = 0 | 0 ± 0.04

FC(F)(F)C(F)(F)C(F)(F)C(F)(F)C(F)(F)C(F)(F)F [perfluorohexane]
Conditions | molar volume [m3/mol]
[1], 288.05 K | 0.0001982 ± 7e-07

FC(F)(F)C(F)(F)C(F)(F)C(F)(F)C(F)(F)C(F)(F)C(F)(F)F [hexadecafluoroheptane] + CCCCCC
[2], 298.15 K
Conditions | excess molar enthalpy [kJ/mol]
x1 = 0.05 | 0.626 ± 0.04
x1 = 0.1 | 1.08 ± 0.041
x1 = 0.15 | 1.4 ± 0.041
x1 = 0.2 | 1.63 ± 0.042
x1 = 0.25 | 1.79 ± 0.042
x1 = 0.3 | 1.91 ± 0.042
x1 = 0.35 | 1.99 ± 0.043
x1 = 0.4 | 2.04 ± 0.043
x1 = 0.45 | 2.07 ± 0.043
x1 = 0.5 | 2.08 ± 0.043
x1 = 0.55 | 2.07 ± 0.043
x1 = 0.6 | 2.03 ± 0.043
x1 = 0.65 | 1.95 ± 0.043
x1 = 0.7 | 1.84 ± 0.042
x1 = 0.75 | 1.67 ± 0.042
x1 = 0.8 | 1.45 ± 0.041
x1 = 0.85 | 1.18 ± 0.041
x1 = 0.9 | 0.841 ± 0.041
x1 = 0.95 | 0.447 ± 0.04
x1 = 1 | 0 ± 0.04

FC(F)(F)C(F)(F)C(F)(F)C(F)(F)C(F)(F)C(F)(F)F [perfluorohexane] + CCCCC
[2], 293.15 K
Conditions | excess molar enthalpy [kJ/mol]
x1 = 0.05 | 0.531 ± 0.04
x1 = 0.1 | 0.94 ± 0.041
x1 = 0.15 | 1.25 ± 0.041
x1 = 0.2 | 1.49 ± 0.042
x1 = 0.25 | 1.67 ± 0.042
x1 = 0.3 | 1.8 ± 0.042
x1 = 0.35 | 1.9 ± 0.042
x1 = 0.4 | 1.96 ± 0.043
x1 = 0.45 | 1.99 ± 0.043
x1 = 0.5 | 1.99 ± 0.043
x1 = 0.55 | 1.97 ± 0.043
x1 = 0.6 | 1.91 ± 0.042
x1 = 0.65 | 1.82 ± 0.042
x1 = 0.7 | 1.7 ± 0.042
x1 = 0.75 | 1.53 ± 0.042
x1 = 0.8 | 1.32 ± 0.041
x1 = 0.85 | 1.06 ± 0.041
x1 = 0.9 | 0.752 ± 0.04
x1 = 0.95 | 0.399 ± 0.04
x1 = 1 | 0 ± 0.04

— the NIST ThermoML archive (doi:10.1016/j.jct.2007.04.002)
